In patent US12691063B1, “Methods of using radiprodil in the treatment of disorders” (GRIN Therapeutics, Inc., priority 2023, dated 2026):
Where “and” joins values, the source holds several entries; their conditions need not be identical. Equal values may be shown once.

Key:
[1] = tested on: patients with GRIN-related neurodevelopmental disorder and GoF variants, behavioral symptoms; assay: Open-label phase 1B study, behavioral cohort; type: in vivo, human
From the text: (§1) This is a global, open-label, multicenter, phase 1B study to evaluate the safety, tolerability, and PK of multiple individually titrated doses of radiprodil and to assess the treatment effect on seizures and behavioral symptoms in 2 cohorts of pediatric participants: 1 cohort of participants with drug resistant seizures (with or without behavioral symptoms) (Cohort 1) and 1 cohort of participants with behavioral symptoms (but no qualifying seizures) (Cohort 2) caused by GoF variants in the GRIN1, 2A, 2B, or 2D genes (GRIN2B GoF variants only in the US). These GoF variants are gene mutations that cause an increased sensitivity of NMDA receptors to glutamate or through decreased inhibition by magnesium, altered affinity to glycine, or other relevant changes considered to increase NMDA transmission. Drug-resistant seizures are defined as a failure to respond to at least 2 antiseizure medication (ASM) therapies taken at adequate doses for an appropriate duration with assured medication adherence as determined by the treating physician. Participants with seizures to be enrolled in the first cohort should have at least 1 observable motor seizure per week and ≥4 observable motor seizures in the prospective 4-week Observation Period.
A behavioral cohort of patients from 6 months to 12 years of age with known GoF variants confirmed via method described in Myers, et al., Hum Mol Genetics. 2023, 32:2857-2871, was enrolled. […] Motor seizures included drop seizures; generalized onset seizures included tonic-clonic, tonic, bilateral clonic, atonic, myoclonic-atonic, and myoclonic-tonic-clonic seizures; and focal seizures included seizures with bilateral hyperkinetic motor features and clonic seizures.

[2] = tested on: PTZ-induced convulsions; assay: Juvenile PTZ rat model of generalized clonic-tonic seizures; type: in vivo; settings: 10 mg/kg; postnatal day 12 and postnatal day 18 rats
Procedure: (§2) Radiprodil anticonvulsant efficacy was specifically tested in rats at different time points during postnatal development, using pentylenetetrazole (PTZ) as a convulsant, to induce generalized clonic-tonic seizures. The activity of radiprodil in this juvenile PTZ rat model was tested up to 30 mg/kg, showing efficacy at a dose of 1 mg/kg. The calculated free plasma fraction of an orally administered 1 mg/kg dose is expected to give around 60% occupancy of the NR2B receptor, based on an ex-vivo occupancy study in rodents and assuming a 1:1 brain to plasma ratio, see below for further details.

[3] = tested on: patients with GRIN-related neurodevelopmental disorder and GoF variants, countable motor seizures (CMS); assay: Open-label phase 1B study, seizure cohort; type: in vivo, human
From the text: Investigational Product (IP): Radiprodil. This example describes an open-label, multicenter phase 1B study being conducted to evaluate the safety, tolerability, and pharmacokinetics (PK) of multiple individually titrated doses of radiprodil and to assess the treatment effect on seizures in participants with drug-resistant seizures caused by gain-of-function (GoF) variants in the GRIN1, GRIN2A, GRIN2B, or GRIN2D genes (GRIN2B GoF variants in the US only).
as §1
A seizure cohort of patients from 6 months to 12 years of age with known GoF variants confirmed via method described in Myers, et al., Hum Mol Genetics. 2023, 32:2857-2871, was enrolled. The patients had drug-resistant seizures with or without behavioral symptoms. Patients also had ≥1 weekly countable motor seizure (CMS) with ≥4 generalized or focal seizures during the observation period. Motor seizures included drop seizures; generalized onset seizures included tonic-clonic, tonic, bilateral clonic, atonic, myoclonic-atonic, and myoclonic-tonic-clonic seizures; and focal seizures included seizures with bilateral hyperkinetic motor features and clonic seizures.
Primary endpoints included safety, tolerability, and radiprodil plasma concentrations. Key secondary endpoints (aka, change from baseline in observable daily CMS frequency using an electronic diary (eDiary)), included ≥50%, ≥90%, and 100% reductions from baseline in seizure frequency; proportion of seizure-free days; and Clinical Global Impressions of Change (CGI-C) and Caregiver Global Impressions of Change (CaGI-C), from baseline to the end of the maintenance period.

[4] = molecular target: T1, NR2B receptor (Rattus norvegicus, UniProt P35439+Q00960); assay: NR2B occupancy calculated from ex-vivo occupancy study in rodents; settings: po; orally administered 1 mg/kg dose; calculated free plasma fraction; 1:1 brain to plasma ratio assumed
T1 construct: from tissue; host or cells: rodent brain (ex vivo)
Procedure: as §2

[5] = 4-week juvenile rat toxicology study; type: in vivo; settings: 0.05 mg/kg bid starting dose
Procedure: The starting dose for each participant enrolled in the study will be set at 0.05 mg/kg bid. […] In patients with neuropathic pain, a total daily dose of 135 mg (45 mg tid) up to 14 weeks has been previously administered. […] Dose Escalation
For the sites not located in the US, based on the dedicated PBPK model, the increment will be a dose expected to give no more than a 2.5-fold higher plasma concentration.

[6] = all unrelated to radiprodil treatment

T1 sequence (Q00960 27-1482, other chains not shown): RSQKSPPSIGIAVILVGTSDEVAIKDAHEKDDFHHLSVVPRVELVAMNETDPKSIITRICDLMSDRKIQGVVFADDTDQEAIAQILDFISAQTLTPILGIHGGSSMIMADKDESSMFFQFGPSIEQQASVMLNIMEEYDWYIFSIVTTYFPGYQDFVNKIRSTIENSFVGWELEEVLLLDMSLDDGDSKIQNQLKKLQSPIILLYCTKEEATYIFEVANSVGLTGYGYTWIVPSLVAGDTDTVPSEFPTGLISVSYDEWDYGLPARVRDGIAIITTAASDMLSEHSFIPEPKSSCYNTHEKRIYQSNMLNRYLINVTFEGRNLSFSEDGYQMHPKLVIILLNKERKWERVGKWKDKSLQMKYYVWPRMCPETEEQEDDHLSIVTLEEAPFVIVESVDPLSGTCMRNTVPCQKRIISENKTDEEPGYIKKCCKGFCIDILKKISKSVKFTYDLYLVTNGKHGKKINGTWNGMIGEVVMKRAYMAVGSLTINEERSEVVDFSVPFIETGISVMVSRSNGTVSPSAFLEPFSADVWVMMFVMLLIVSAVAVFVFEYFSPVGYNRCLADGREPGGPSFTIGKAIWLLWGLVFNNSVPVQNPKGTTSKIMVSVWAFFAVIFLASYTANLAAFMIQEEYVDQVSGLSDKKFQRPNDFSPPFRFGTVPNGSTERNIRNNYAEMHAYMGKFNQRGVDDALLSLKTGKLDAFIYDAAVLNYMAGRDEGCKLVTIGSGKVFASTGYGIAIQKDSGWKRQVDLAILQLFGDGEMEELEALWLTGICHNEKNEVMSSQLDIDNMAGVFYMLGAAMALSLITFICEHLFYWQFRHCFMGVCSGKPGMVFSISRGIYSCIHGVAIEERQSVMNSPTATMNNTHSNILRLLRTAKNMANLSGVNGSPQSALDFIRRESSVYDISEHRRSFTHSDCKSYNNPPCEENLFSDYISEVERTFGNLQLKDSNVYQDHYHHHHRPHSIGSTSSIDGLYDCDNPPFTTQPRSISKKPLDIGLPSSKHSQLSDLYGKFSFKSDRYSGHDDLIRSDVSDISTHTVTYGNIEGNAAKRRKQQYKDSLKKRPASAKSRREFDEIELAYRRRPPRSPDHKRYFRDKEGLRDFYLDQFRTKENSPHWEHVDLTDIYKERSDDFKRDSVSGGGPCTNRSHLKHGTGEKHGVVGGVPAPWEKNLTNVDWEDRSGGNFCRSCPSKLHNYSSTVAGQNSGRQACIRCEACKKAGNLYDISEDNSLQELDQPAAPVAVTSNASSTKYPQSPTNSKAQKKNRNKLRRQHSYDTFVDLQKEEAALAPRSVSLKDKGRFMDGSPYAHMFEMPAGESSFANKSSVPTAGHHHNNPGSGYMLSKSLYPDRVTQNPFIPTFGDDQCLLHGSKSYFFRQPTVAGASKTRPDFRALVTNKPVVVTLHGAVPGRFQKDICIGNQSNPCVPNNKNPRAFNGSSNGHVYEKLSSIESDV

In the case of O=C(Nc1ccc2[nH]c(=O)oc2c1)C(=O)N1CCC(Cc2ccc(F)cc2)CC1 [radiprodil, Radiprodil], the “Any TEAE” value ([1]; Behavioral Cohort (n = 7)) is reported as 6 (85.7) n (%), the “TEAE Abnormal behavior” value ([1]; Behavioral Cohort (n = 7)) is reported as 2 (28.6) n (%) and the “TEAE Agitation” value ([1]; Behavioral Cohort (n = 7)) is reported as 2 (28.6) n (%). For the same molecule, the “TEAE Cough” value ([1]; Behavioral Cohort (n = 7)) was 1 (14.3) n (%), the “TEAE Diarrhea” value ([1]; Behavioral Cohort (n = 7)) was 2 (28.6) n (%) and the “TEAE Dystonia” value ([1]; Behavioral Cohort (n = 7)) was 1 (14.3) n (%). The “TEAE Fatigue” value ([1]; Behavioral Cohort (n = 7)) was 2 (28.6) n (%), the “TEAE Gastroenteritis” value ([1]; Behavioral Cohort (n = 7)) was 1 (14.3) n (%) and the “TEAE Pyrexia” value ([1]; Behavioral Cohort (n = 7)) was 1 (14.3) n (%). For the same molecule, the “TEAE Respiratory tract infection” value ([1]; Behavioral Cohort (n = 7)) was 2 (28.6) n (%), the tolerability ([1]; Example 9) was “generally well-tolerated” and the “patients who experienced SAEs” value [1, 6] was “Three”. For the same molecule, the “Caregiver Global Impressions of Change (CaGI-C)” value ([1]; caregivers, behavioral cohort) was “clinical improvement in most patients”, the “Clinical Global Impressions of Change (CGI-C)” value ([1]; clinicians, behavioral cohort) was “clinical improvement in most patients” and the “tonic phases of PTZ-induced convulsions” value [2] was “completely blocked”. For the same molecule, the “patients seizure-free during 80% of days” value ([3]; 8-week maintenance period) was 6 of 7, the tolerability ([3]; Example 4) was “generally well-tolerated” and the “Any TEAE” value ([3]; Seizure Cohort (n = 8)) was 8 (100) n (%). The “TEAE Abnormal behavior” value ([3]; Seizure Cohort (n = 8)) was 1 (12.5) n (%), the “TEAE Agitation” value ([3]; Seizure Cohort (n = 8)) was 1 (12.5) n (%) and the “TEAE Cough” value ([3]; Seizure Cohort (n = 8)) was 2 (25.0) n (%). The “TEAE Diarrhoea” value ([3]; Seizure Cohort (n = 8)) was 2 (25.0) n (%), the “TEAE Dystonia” value ([3]; Seizure Cohort (n = 8)) was 2 (25.0) n (%) and the “TEAE Fatigue” value ([3]; Seizure Cohort (n = 8)) was 1 (12.5) n (%). The “TEAE Gastroenteritis” value ([3]; Seizure Cohort (n = 8)) was 2 (25.0) n (%), the “TEAE Pyrexia” value ([3]; Seizure Cohort (n = 8)) was 4 (50.0) n (%) and the “TEAE Respiratory tract infection” value ([3]; Seizure Cohort (n = 8)) was 2 (25.0) n (%). The “seizure cohort patients with reductions from baseline in CMS frequency” value ([3]; after radiprodil treatment) was 6 of the 7 and 6 of 7, the “patients who experienced SAEs” value [3, 6] was “Three” and the “Caregiver Global Impressions of Change (CaGI-C)” value ([3]; caregivers, seizure cohort) was “clinical improvement in most patients”. For the same molecule, the “Clinical Global Impressions of Change (CGI-C)” value ([3]; clinicians, seizure cohort) was “clinical improvement in most patients”, the “reduction in CMS frequency in most patients” value ([3]; seizure cohort) was no less than 50% and the receptor occupancy at 1 mg/kg [4] was roughly 60%. The “exposure level (total Cmax and AUC) lower than NOAEL exposure in juvenile rat toxicology study” value [5] was “more than 20 fold”.
